Results on 19 compounds are retold here after PubChem BioAssay (NCI).

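Grown in 96-well plates, cells were treated for 48 hours with each compound at five concentrations. Insufficient inhibition: endpoint recorded as highest concentration tested. At the TGI there is no net growth.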

What is called TGI is the concentration giving total growth inhibition. A low value points to more potent growth arrest.

What all share (experiment): DTP human tumour cell line panel, 48 h
Assay [1] has as its system HT29 colon.
In assay [2] the test system is KM12 colon.
Assay [3] has as its system U251 CNS.
The test system of assay [4] is HCT-116 colon.
Assay [5] has as its system SF-268 CNS.
The test system of assay [6] is CAKI-1 renal.
Assay [7] deals with RPMI-8226 leukemia.
Assay [8] concerns SW-620 colon.
Assay [9] relates to SF-295 CNS.
For assay [10], the system named is SK-OV-3 ovarian.
In assay [11] the test system is A549 NSCLC.
The subject of assay [12] is ACHN renal.
Assay [13] concerns SK-MEL-2 melanoma.
Assay [14] concerns SK-MEL-5 melanoma.
For assay [15], the system named is COLO 205 colon.

On to `CC(=O)OCC1OC(OC2C(COC(C)=O)OC(Sc3ccccc3C)C(OC(C)=O)C2OC(C)=O)C(OC(C)=O)C(OC(C)=O)C1OC(C)=O` (configuration not stated), for which the TGI in assay [1], in assay [2], in assay [3], in assay [4], in [5] and in [6] was > 100 µM in each case. Besides, the TGI in assay [7], in assay [8], in assay [9], in assay [10], in assay [11] and in assay [12] was > 100 µM each time. Besides, the TGI in assay [13], in [14] and in [15] was > 100 µM each time.

On to `NS(=O)(=O)c1ccc(Nc2c3ccccc3nc3c(C(=O)N4CCN(CCO)CC4)cccc23)cc1`, for which the TGI in assay [1], in assay [2], in assay [3], in assay [4], in assay [5] and in assay [6] was > 100 µM each time. Also, the concentration for total growth inhibition (TGI) in assay [8], in assay [9], in assay [10], in assay [11], in assay [12] and in [13] was > 100 µM throughout. The TGI in assay [14] and in assay [15] was > 100 µM throughout.

On to `O=c1[nH]c(=O)n(C2CC(O)C(CO)O2)cc1C(F)(C(F)(F)F)C(F)(F)F` (configuration not stated), for which the concentration for total growth inhibition (TGI) in [1], in [2], in assay [3], in assay [5], in [6] and in assay [7] was > 100 µM in each case. The concentration for total growth inhibition (TGI) in assay [8], in [9], in assay [10], in assay [12], in assay [13] and in assay [14] was > 100 µM throughout. Also, in assay [15], the TGI was > 100 µM.

With `CSc1ccc2c(cc1=O)[C@@H](NC(=O)c1ccc(Cl)cc1)CCc1cc(O)c(O)c(O)c1-2`, the total growth inhibition concentration (TGI) is > 100 µM in [1]; > 100 µM in assay [2]; > 100 µM in assay [3]; 32.1 µM in [4]; > 100 µM in [5]; > 100 µM in assay [6]. In addition, the TGI was 91.5 µM in [7]; 37.1 µM in assay [8]; > 100 µM in assay [9]; > 100 µM in [10]; > 100 µM in assay [11]; > 100 µM in assay [12]. Moreover, the concentration for total growth inhibition (TGI) in [13], in assay [14] and in assay [15] was > 100 µM throughout.

Consider `O=C1Cc2nc(CO)c(CO)c(CO)c2CO1`, for which the TGI in assay [1], in assay [2], in assay [3], in assay [4], in assay [5] and in assay [6] was > 100 µM each time. The TGI in [7], in assay [8], in assay [9], in [10], in assay [11] and in [12] was > 100 µM throughout. The TGI in assay [13], in assay [14] and in assay [15] was > 100 µM throughout.

As for `CCOc1cn(C2OC(CO)C(O)C2O)c(=O)[nH]c1=O` (configuration not stated), the TGI was > 100 µM in assay [1]; > 100 µM in assay [2]; 43.7 µM in assay [3]; > 100 µM in [4]; > 100 µM in assay [5]; > 100 µM in [6]. In addition, the concentration for total growth inhibition (TGI) was > 100 µM in [7]; 89.5 µM in assay [8]; > 100 µM in assay [9]; > 100 µM in assay [10]; > 100 µM in assay [11]; > 100 µM in [12]. The TGI in assay [13], in assay [14] and in assay [15] was > 100 µM in each case.

As to `COc1ccc(C2ON(c3ccccc3)CC=C2C)cc1` (configuration not stated), the TGI in assay [1], in [2], in assay [3], in [4], in assay [5] and in assay [6] was > 100 µM in each case. Also, the TGI in assay [7], in assay [8], in assay [9], in [10], in assay [11] and in assay [12] was > 100 µM in each case. For the same compound, the TGI in [13] is 78.3 µM; in assay [15] it was > 100 µM.

Consider `COc1cccc(/C=C/C(=O)c2sc(C(N)=S)nc2C)c1O`, for which the TGI was > 100 µM in assay [1]; > 100 µM in [2]; > 100 µM in [3]; > 92.5 µM in assay [4]; > 100 µM in assay [5]; > 100 µM in assay [6]. For the same compound, the TGI in assay [7] was > 83.3 µM; in assay [8] it was 86.3 µM; in [9], > 100 µM; in assay [10] it was > 100 µM; in [11], > 100 µM; in [12], > 100 µM. For the same compound, the TGI in [13], in assay [14] and in assay [15] was > 100 µM throughout.

Regarding `COc1ccc(C(=O)c2c3cc(OC)c(OC)c(OC)c3cc[n+]2C)cc1`, the TGI in assay [1] is > 100 µM; in assay [2] it was > 100 µM; in assay [3] it was > 100 µM; in assay [4] it was > 100 µM; in assay [5], > 100 µM; in assay [7] it was 49 µM. Besides, the TGI in assay [8] is > 100 µM; in assay [10], > 100 µM; in assay [11], 34.7 µM; in assay [12] it was > 100 µM; in assay [13], 52.2 µM; in assay [14], 35.1 µM.

`CC(=O)Nc1ccc(-c2nnc(SCC(=O)Nc3cccc(Cl)c3)o2)cc1`: the TGI amounted to 31 µM in [1]; 30.8 µM in assay [2]; 23.2 µM in [3]; 25.5 µM in assay [4]; 37.8 µM in assay [5]; 33.2 µM in assay [6]. The TGI is > 100 µM in assay [7]; 28 µM in assay [8]; 33.6 µM in [9]; > 100 µM in assay [10]; 33.1 µM in [11]; 28.9 µM in assay [12]. The values for the TGI in assay [13], in assay [14] and in [15] were 70.4 µM, 29.1 µM and 31 µM, respectively.

For the compound `COc1cc2oc(-c3ccccc3)cc(=O)c2c(O)c1C`, the TGI in assay [1], in [2], in [3], in [4], in assay [5] and in assay [6] was > 100 µM in each case. Moreover, the TGI in assay [7], in assay [8], in assay [9], in [10], in assay [11] and in [12] was > 100 µM throughout. The TGI in [13], in assay [14] and in assay [15] was > 100 µM in each case.

Consider `COC(=O)[C@@]1(C)C(=O)CC[C@@H]1C=O`, for which the TGI in assay [1], in [2], in [3], in assay [4], in assay [5] and in assay [6] was > 100 µM in each case. The TGI in assay [7], in assay [8], in assay [9], in assay [10], in [11] and in assay [12] was > 100 µM each time. Moreover, the TGI in assay [13], in [14] and in [15] was > 100 µM each time.

Consider `COc1ccc(N2C(=O)C3c4[nH]c5ccccc5c4C4CC(C)(C)CC(C)(C)C4C3C2=O)cc1` (configuration not stated), for which the TGI in [1] was > 100 µM; in assay [3], 31.2 µM; in assay [4], 30.4 µM; in [5], 54 µM; in assay [7] it was > 100 µM; in assay [8], 71.7 µM. Moreover, the TGI in assay [9] amounted to 21.4 µM; in assay [10] it was 38.2 µM; in [11] it was 27.3 µM; in [12] it was 31.9 µM; in assay [14] it was 41.3 µM; in assay [15], 34.8 µM.

For the compound `CC(=O)OCCOCNC(=S)N/N=C/c1cc([N+](=O)[O-])ccc1O`, the TGI in assay [1], in assay [2], in assay [3], in [4], in assay [5] and in [8] was > 100 µM each time. The TGI in assay [9], in assay [10], in [11], in [12], in [13] and in assay [14] was > 100 µM in each case. In assay [15], the TGI is > 100 µM.

Take `c1cc2nnsc2s1`: the concentration for total growth inhibition (TGI) in [1], in assay [2], in [3], in assay [5], in [6] and in [7] was > 100 µM each time. Besides, the TGI in assay [8], in [9], in assay [10], in [12], in assay [13] and in [14] was > 100 µM throughout. Besides, the TGI in [15] is > 100 µM.

For `CN/C=C(\C(=O)c1ccc(OC)c(OC)c1)c1ccc(OC)cc1`, the concentration for total growth inhibition (TGI) in assay [1] came to 38.2 µM; in assay [2] it was 29.5 µM; in [3], 21.3 µM; in [4] it was 18.1 µM; in assay [5], 72.9 µM; in assay [7], 24.4 µM. The TGI in [8] was 37.5 µM; in [9], > 100 µM; in assay [10], > 100 µM; in assay [11], > 100 µM; in assay [12], 75.1 µM; in [13] it was 31.5 µM. Moreover, the TGI in assay [14] came to 35 µM; in assay [15], 38.3 µM.

Take `COc1cc(CC2c3cc(OC)c(OC)cc3CCN2C)ccc1O` (configuration not stated): the TGI in assay [1], in assay [2], in assay [3], in assay [4], in assay [5] and in [6] was > 100 µM in each case. In addition, the TGI in assay [7], in assay [8], in assay [9], in assay [11], in assay [12] and in assay [13] was > 100 µM in each case. In addition, in assay [14], the TGI was > 100 µM.

As to `CC(c1ccc2c(c1)CCC1C2CC2OC23CC=CC(=O)[C@]13C)C1C[C@]2(C)O[C@]2(C)[C@H](O)O1` (some centres not stated), the TGI is > 100 µM in assay [1]; > 100 µM in [2]; 55.3 µM in assay [3]; > 100 µM in assay [4]; > 100 µM in [5]; 81.3 µM in assay [6]. In addition, the TGI in assay [7], in [8], in assay [10], in assay [11], in assay [12] and in assay [13] was > 100 µM in each case. In addition, the values for the TGI in [14] and in assay [15] were 28.1 µM and > 100 µM, respectively.

On to `COC1(C)C(=O)N2C1N(C(=O)OC(C)(C)C)CC2(C)C` (configuration not stated), for which the total growth inhibition concentration (TGI) in assay [1], in assay [2], in assay [3], in assay [4], in assay [5] and in [6] was > 100 µM each time. Besides, the TGI in [7] was > 100 µM; in [8], 37.5 µM; in [9], > 100 µM; in [10], > 100 µM; in [11], > 100 µM; in assay [12] it was > 100 µM. For the same compound, the TGI in [13], in assay [14] and in assay [15] was > 100 µM in each case.
